Consider eight compounds from ChEMBL document CHEMBL2439984, “Design, synthesis, and bioevaluation of viral 3C and 3C-like protease inhibitors” (Bioorg Med Chem Lett, 2013).

The source made the active and inactive calls. The rule behind the calls is not given here.

The test system of one data set is Norwalk virus. Kind of data set: Antiviral activity against Norwalk virus infected in human HG23 cells. It is filed as functional, cell-based.
Data set [1] can be described thus: Inhibition of SARS coronavirus protease 3C by FRET assay. On the set-up: species or system Severe acute respiratory syndrome-related coronavirus.
The nature of data set [2]: Antiviral activity against Murine norovirus 1 infected in human […] cells. It is filed as functional, cell-based. As to conditions: Norwalk virus.
Data set [3] is described as follows: Antiviral activity against Human rhinovirus 18 infected in human […] cells. Format: functional, cell-based, Human rhinovirus A18. As to conditions: Rhinovirus A.
A short description of data set [4]: Inhibition of Human rhinovirus sp. […] protease by FRET assay.
A short description of data set [5]: Cytotoxicity against human HG23 cells after 72 hrs by crystal violet staining-based assay. It is filed as cell-based.
For another data set, the system named is Human coronavirus 229E. Kind of data set: Antiviral activity against Coronavirus 229E infected in human […] cells. Format: functional, organism-based.
Data set [6] can be described thus: Inhibition of Norovirus MD145 protease 3C by FRET assay.
The target of data set [7] is T1, Neutrophil elastase (Homo sapiens) (UniProt P08246).
T1 sequence (whole entry): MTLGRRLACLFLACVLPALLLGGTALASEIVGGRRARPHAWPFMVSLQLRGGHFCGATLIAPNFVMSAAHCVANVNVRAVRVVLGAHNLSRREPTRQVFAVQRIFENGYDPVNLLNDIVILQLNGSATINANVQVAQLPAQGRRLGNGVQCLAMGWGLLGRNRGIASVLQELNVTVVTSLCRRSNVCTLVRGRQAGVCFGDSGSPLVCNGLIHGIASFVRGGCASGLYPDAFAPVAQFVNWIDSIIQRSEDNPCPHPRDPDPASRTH
The experiment in a line: Inhibition of human neutrophil elastase using MeO-Suc-Ala-Ala-Pro-Val-pNa as substrate up to 10 uM preincubated for 30 mins prior to substrate addition measured for 120 seconds by spectrophotometric analysis.

Data set [8] addresses Replicase polyprotein 1ab (Severe acute respiratory syndrome-related coronavirus, UniProt P0C6X7). The experiment in a line: Inhibition of SARS coronavirus 3C-like protease by FRET assay.
The species named for another data set is Homo sapiens. Kind of data set: Inhibition of alpha-chymotrypsin (unknown origin) using Suc-Ala-Ala-Pro-Phe as substrate up to 10 uM preincubated for 10 mins prior to substrate addition measured for 60 seconds by spectrophotometric analysis.
For the next data set, the target named is Trypsin (Homo sapiens) (UniProt P07477+P07478+P35030). Kind of data set: Inhibition of trypsin (unknown origin) using BAPNA as substrate up to 10 uM preincubated for 10 mins prior to substrate addition measured for 300 seconds by spectrophotometric analysis. It is filed as protein assay.
The target in data set [9] is Prothrombin (Homo sapiens) (UniProt P00734). Kind of data set: Inhibition of thrombin (unknown origin) using N-p-tosyl-Gly-Pro-Lys-pNa as substrate up to 10 uM preincubated for 30 mins prior to substrate addition measured for 120 seconds by spectrophotometric analysis.

As for `CC(C)C[C@H](NC(=O)[C@H](Cc1cccc2ccccc12)NC(=O)OCc1ccccc1)C(=O)N[C@@H](C[C@@H]1CCNC1=O)C(O)S(=O)(=O)O` (stereo partly specified), it took 40 nM to reach a half-maximal effect in the data set on Norwalk virus (EC50).

Consider `CC(C)C[C@H](NC(=O)[C@H](Cc1ccccc1)NC(=O)OCc1ccccc1)C(=O)N[C@H](C=O)C[C@@H]1CCNC1=O`, for which, in the data set with Norwalk virus, a half-maximal response (EC50) required 60 nM.

In the case of `CC(C)C[C@H](NC(=O)[C@H](Cc1cccc2ccccc12)NC(=O)OCc1ccccc1)C(=O)N[C@@H](C[C@@H]1CCNC1=O)C(=O)C(=O)NC(C)C`, the IC50 in [1] was 610 nM; in data set [4] it was 120 nM; in [6], 3100 nM. The EC50 in [2] is 4200 nM; in the data set on Norwalk virus, 4200 nM; in [3], 30 nM; with Human coronavirus 229E, 500 nM. This compound also displayed a CC50 at 72 h in data set [5] of more than 100000 nM.

In the data set with Norwalk virus, `CC(C)C[C@H](NC(=O)[C@@H](Cc1cccc2ccccc12)NC(=O)OCc1ccccc1)C(=O)N[C@H](C=O)C[C@@H]1CCNC1=O` yielded an EC50 of 450 nM.

As to `CC(C)C[C@H](NC(=O)[C@H](Cc1cccc2ccccc12)NC(=O)OCc1ccccc1)C(=O)N[C@H](C=O)C[C@@H]1CCNC1=O`, the EC50 amounted to 600 nM in data set [2], 40 nM with Norwalk virus, 15 nM in data set [3] and 200 nM with Human coronavirus 229E. The inhibition result (in data set [7]; in the data set listed under Homo sapiens; at Trypsin (Homo sapiens); in data set [9]) was “inactive” throughout. Besides, the results for the IC50 in data set [8], in [4] and in [6] were 230 nM, 150 nM and 510 nM, respectively. In [5], the CC50 at 72 h was 87000 nM.

In the data set with Norwalk virus, `CC(C)C[C@H](NC(=O)[C@H](Cc1ccc2ccccc2c1)NC(=O)OCc1ccccc1)C(=O)N[C@H](C=O)C[C@@H]1CCNC1=O` had an EC50 of 80 nM.

`CCOP(=O)(OCC)C(O)[C@H](C[C@@H]1CCNC1=O)NC(=O)[C@H](CC(C)C)NC(=O)[C@H](Cc1cccc2ccccc12)NC(=O)OCc1ccccc1` (stereo partly specified) gave an EC50 in the data set on Norwalk virus of 100 nM.

In the data set on Norwalk virus, `CC(C)C[C@H](NC(=O)[C@H](Cc1ccc(-c2ccccc2)cc1)NC(=O)OCc1ccccc1)C(=O)N[C@H](C=O)C[C@@H]1CCNC1=O` gave an EC50 of 50 nM.
